Experimental data from PMC7170889, “Synthesis and evaluation of designed PKC modulators for enhanced cancer immunotherapy” (Nature Communications, 2020).

Experiments:
[1] = tested on: PKC; test: PKC competitive binding assay, isoform not specified; set-up: species or system human
Experimental: (§1) With a panel of compounds bearing diverse functionality at C13, we began to explore how these modifications affect PKC binding and biological function. Because an obvious prerequisite for PKC pathway involvement is binding to PKC, compounds were initially evaluated for PKC affinity in a cell-free competitive binding assay with tritiated phorbol dibutyrate ([^3H]-PDBu). Assays were performed with representative members of both the conventional (PKCα) and novel (PKCδ) PKC families. Subsequently, compounds were assayed for PKC isoform translocation in real time in living cells using an optical assay. Translocation to the plasma membrane is the hallmark of PKC activation[18],[57],[60] and therefore monitoring the subcellular localization of a PKCδ-GFP fusion protein via confocal microscopy offers a convenient method for determining whether a compound enters a cell and engages its PKC isoform target. Finally and of clinical significance, we also determined the effect of compounds on CD22 surface expression in vitro in NALM6 cells, an ALL cell line previously studied in connection with CD22-targeted CAR T cell therapy, and two additional lymphoma cell lines[11],[31],[65].
PKC Binding Assay Protocol […]
competition with 3H-phorbol-12,13-dibutyrate (3H-PDBu) as described below. This procedure entails a glass-fiber filtration method to determine bound radioligand.
Preparation of PKC binding assay buffer
To a 50 mL polypropylene tube was added Tris-HCl (pH 7.4, 1 M, 1 mL), KCl (1 M, 2 mL), CaCl2 (0.1 M, 30 μL), and bovine serum albumin (BSA, 40 mg, Sigma-Aldrich). This mixture was diluted to 20 mL with deionized H2O and mixed gently. The buffer was stored on ice until use. The final […]
Supplementary Table1. PKC binding assay buffer composition.
Preparation of phosphatidylserine (PS) vesicles
For every two assays, 3.5 mg phosphatidylserine (Avanti Polar Lipids, porcine, 25 mg/mL CHCl3 solution) was concentrated by removing chloroform under a stream of nitrogen followed by reduced pressure. The solid PS was suspended as vesicles in freshly prepared PKC binding assay buffer (3.5 mL) by sonicating six times for 30 sec, with a 30 sec rest between sonications (Branson Sonifier 250, power = 2, 50% duty cycle). The resulting milky cloudy mixture (1 mg/mL) was stored […]
Preparation of PKC isoform solution
Assay PKC was prepared by dissolving a 4 μg aliquot of the indicated recombinant human PKC isoform (Invitrogen) into 11.6 mL of PKC binding assay buffer (this amount is sufficient for two assays). The diluted PKC was stored on ice for immediate use.
Preparation of 3H-PDBu solution
3H-PDBu (American Radiolabeled Chemicals, Inc.; 1 mCi/mL acetone solution; specific activity: […]) was diluted 10-fold with DMSO. The resulting 500 nM stock solution was further diluted with DMSO to 30 nM.
Preparation of analog compound dilutions
Compound dilutions were prepared by serially diluting from a chosen "high" concentration by factors of 3 or 4. For each analog compound, seven concentrations were used to define the […]
To a polypropylene tube was added 3.3 mL of 1 mg/mL PS vesicles solution, 11 mL of PKC isoform solution, and 1.1 mL of 30 nM 3H-PDBu solution were added. The resulting solution was vortexed to mix and stored on ice.
PKC binding assay protocol
- Glass-fiber filters (Whatman GF/B) were prepared by soaking them in a solution of […]

[2] = molecular target: T1, PKCδ-GFP fusion protein (Homo sapiens, UniProt Q05655); test: PKCδ-GFP translocation assay in living CHO-k1 cells (confocal microscopy); format: cell-based, Chinese hamster; settings: for Emax at 1 µM: CHO-K1, 1000 nM compound; for minimum effective concentration required to induce translocation of PKC-GFP to the membrane: tested at 200 and 1000 nM
T1 construct: expressed in transfected cells; host or cells: CHO-k1 (Chinese hamster ovary, ATCC)
Experimental: as §1
Scale bar represents 25 μm. Experiments performed in n = 3 biological replicates. b–d Cytosolic fluorescence normalized to t = 0 (time immediately prior to addition of compound to media) and plotted against time. Error bars excluded for clarity (data presented as the mean of n = 3 biological replicates). Individual curves with error bars included in Supplementary Information.
PKCδ-GFP Translocation Assay Protocol
Chinese hamster ovary factor K1 (CHO-k1, ATCC) cells were cultured in F-12 Kaighn’s media (Hyclone, 10% fetal bovine serum, 1% penicillin/streptomycin added, reffered to as F-12 +/+ below) at 37 ° C in an incubator (5% CO2). Cell cultures were maintained by splitting cells 1:3 when they reached ~75-100% confluence (every 2-3 days) as follows:
(Gibco) was used to remove the cells from the culture flask (T75, Falcon). 1 mL of the cell suspension was then added to 9 mL of fresh F-12 +/+ and the sample was sub-cultured until reaching confluence (~2-3 days).
Cells were counted using a Countess II Automated Cell Counter (Fisher). The cell suspension was diluted to 240,000 cells/mL with fresh F-12 +/+ and 2.5 mL of this diluted stock was added to one well in a 6-well plate. The cells were then cultured for 24 hours.
Cells were transfected with Lipofectamine 2000 reagent (Invitrogen) or DA 13:11 at a 10:1 charge […]
F-12 +/+ was aspirated and cells were washed with F-12 -/-. 2 mL of fresh F-12 -/- was then added to each well, taking care not to disturb adherent cells. For each well of CHO-k1 cells, 12.5 µL Lipofectamine 2000 reagent (Invitrogen) was added to 250 µL Opti-MEM reduced serum media (Invitrogen) in a polypropylene tube and incubated for 20 minutes at RT. Meanwhile, for each well, 4 µg of PKCδ-GFP pDNA and 250 µL Opti-MEM reduced serum media was added to a separate polypropylene tube. 250 µL of the Lipofectamine 2000 suspension was added to the DNA suspension and the solution incubated for 30 minutes at RT. 500 µL of the Lipofectamine/DNA suspension was added to the respective wells of the 6-well plate. The cells were then incubated at 37 ° C (5% CO2) for ~24 hrs.
F-12 +/+ was aspirated and cells were washed with F-12 -/-. 2.4 mL of fresh F-12 -/- was then added to each well, taking care not to disturb adherent cells. A 4 µg aliquot of PKCδ-GFP pDNA was added to PBS (pH 5.5, final volume 100 µL). 5.6 µL of DA 13:11 (2 mM stock in DMSO) was then added to the DNA solution, and the mixture was gently mixed (by flicking) for 20 seconds, at which point it was added directly to the respective wells of the 6-well plate.

[3] = CHO-k1 cells, n = 3, read-out: % Translocation (maximum translocation of PKCδ-GFP to the plasma membrane)

T1 sequence (Q05655 whole entry, the tested form may be a part): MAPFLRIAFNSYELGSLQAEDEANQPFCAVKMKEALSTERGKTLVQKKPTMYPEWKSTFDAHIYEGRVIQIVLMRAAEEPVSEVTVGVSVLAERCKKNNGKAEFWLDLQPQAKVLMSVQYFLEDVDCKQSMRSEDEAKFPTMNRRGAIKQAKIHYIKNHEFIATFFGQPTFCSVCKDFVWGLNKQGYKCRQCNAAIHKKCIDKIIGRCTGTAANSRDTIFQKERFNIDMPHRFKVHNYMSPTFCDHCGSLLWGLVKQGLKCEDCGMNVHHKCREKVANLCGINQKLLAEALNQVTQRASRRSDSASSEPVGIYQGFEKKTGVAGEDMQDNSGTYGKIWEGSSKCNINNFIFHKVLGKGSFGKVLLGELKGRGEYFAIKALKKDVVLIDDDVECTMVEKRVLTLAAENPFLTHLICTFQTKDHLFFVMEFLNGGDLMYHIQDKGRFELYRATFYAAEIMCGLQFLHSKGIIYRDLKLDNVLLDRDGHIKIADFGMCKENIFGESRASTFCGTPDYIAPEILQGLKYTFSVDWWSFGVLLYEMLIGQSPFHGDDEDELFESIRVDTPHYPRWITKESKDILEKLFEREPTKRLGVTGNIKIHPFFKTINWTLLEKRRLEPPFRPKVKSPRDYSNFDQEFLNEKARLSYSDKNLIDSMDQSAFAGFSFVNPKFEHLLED

Row | Structure (SMILES) | PKC binding affinity in words ([1]; conventional and novel PKC isoforms) | % Translocation (maximum translocation of PKCδ-GFP to the plasma membrane) ([2]; 1000 nM compound, CHO-k1 cells, n = 3) | Emax at 1 µM [2, 3] | minimum effective concentration required to induce translocation of PKC-GFP to the membrane ([2]; CHO-k1 cells) | Emax at 0.2 µM ([2]; CHO-K1, 200 nM compound, CHO-k1 cells, n = 3, read-out: % Translocation (maximum translocation of PKCδ-GFP to the plasma membrane)) | decrease in affinity to PKC ([1]; charged substituents at C13, Table 1 data) | sustained translocation of PKC ([2]; at up to 1000 nM)
1 | CCCCCC#CC(=O)O[C@H]1/C(=C/C(=O)OC)C[C@H]2C[C@H]([C@@H](C)O)OC(=O)C[C@H](O)C[C@@H]3C[C@H](OC(C)=O)C(C)(C)[C@](O)(C[C@@H]4C[C@@](O)(CO)C[C@H](/C=C/C(C)(C)[C@]1(O)O2)O4)O3 [SUW203] | single-digit nanomolar | 50% | ~50% | 1000 nM |  |  | 
2 | CCC/C=C/C=C/C(=O)O[C@H]1/C(=C/C(=O)OC)C[C@H]2C[C@H]([C@@H](C)O)OC(=O)C[C@H](O)C[C@@H]3C[C@H](OC(C)=O)C(C)(C)[C@](O)(C[C@@H]4C[C@H](OC(C)=O)C[C@H](/C=C/C(C)(C)[C@]1(O)O2)O4)O3 [SUW206] |  |  |  | 200 nM | 60% |  | 
3 | CCCC=CC=CC(=O)OC1C(=CC(=O)OC)CC2CC(C(C)O)OC(=O)CC(O)CC3CC(OC(C)=O)C(C)(C)C(O)(CC4CC(OC(=O)CCC(=O)O)CC(C=CC(C)(C)C1(O)O2)O4)O3 (stereo not shown) [SUW211] |  |  | 20% | 1000 nM |  | 20-100 fold | did not achieve sustained translocation of PKC
